Values quoted from earlier work as cited in patent publication US10016482B2, “Insulin independence among patients with diabetes utilizing an optimized hamster REG3 gamma peptide” (priority 2014, dated 2018).
Where two headings read alike, the source gives them in different places. No end group written: not given here.

What was measured:
[1] = tested on: patients with type 1 diabetes; details: for study subjects / patients dropping out of the clinical trials due to local side-effects: man, local injection site reactions (pain, bruising, infection, skin site reactions)
[2] = tested on: new small islets developing from non-endocrine tissue
[3] = tested on: human extra-islet pancreatic exocrine tissue; details: in vitro; exocrine ductal tissue separated from endocrine beta cells

In the case of “IGLHDPSHGTLPNGS [hamster Reg3 gamma peptide, native 15 amino acid hamster Reg3 gamma peptide]”, the “increase in endogenous insulin production” value ([1]; by day 54, type 1 patients with no baseline c-peptide) is listed as 27%, the “study subjects / patients dropping out of the clinical trials due to local side-effects” value (“study subjects / patients dropping out” for short) ([1]; listed as 15-amino acid hamster Reg3 gamma peptide) is listed as “⅓” and the “study subjects / patients dropping out” value ([1]; listed as 15 amino acid hamster Reg3gamma peptide) is listed as “more than ⅓”. The “study subjects / patients dropping out” value ([1]; listed as hamster Reg3 gamma 15 amino acid peptide) was “⅓”, the “rise in stimulated c-peptide” value ([1]; type 1 patients with no detectable c-peptide at baseline) was 27% and the insulin requirements ([1]; type 1 patients, within 54 days of usage) was “significant reduction”. The “levels of new islet markers (NGN3, NKX6.1, SOX9, INS)” value ([2]; five days after treatment) was “increased levels”, the “increase in the volume of new small islets” value ([2]; islets developing from non-endocrine tissue) was 2 fold and the “transformation of exocrine ductal tissue” value [3] was “transform into new beta cells”.
